Columns and labels:
A673 = test: CellTiter-Glo cancer cell growth inhibition, A673; type: cell-based
Source text: (§1) The CellTiter-Glo® Luminescent Cell Viability Assay is a sensitive homogeneous method to determine the number of viable cells in culture, Detection is based on using the luciferase reaction to measure the amount of ATP from viable cells. The amount of ATP in cells correlates with cell viability. Within minutes after a loss of membrane integrity, cells lose the ability to synthesize ATP, and endogenous ATPases destroy any remaining ATP; thus the levels of ATP fall precipitously. The CellTiter-Glo® Reagent does three things upon addition to cells. It lyses cell membranes to release ATP; it inhibits endogenous ATPases, and it provides luciferin, luciferase and other reagents necessary to measure ATP using a bioluminescent reaction. The unique properties of a proprietary stable luciferase.
(§2) All assays were performed by Reaction Biology Corporation (Malvern, Pa.) or ChemDiv, Inc. (San Diego, Calif.). All cell lines were purchased from American Type Culture Collection (ATCC, Manassas, Va.), except Huh 7 (RIKEN, Toyo, Japan) and HepaRG (Life Technologies, Carlsbad, Calif.).
(§3) Stock solutions ([…]) were diluted with cell culture media to produce 500× serial dilutions and […] of final compound dilutions were added to cells in assay plates to screen a series of 10 doses starting at […]. Final DMSO concentration was 0.2%. Assay plates are centrifuged at 100 rpm, 1 minute and kept at 37° C., 5% CO2, humidified atmosphere. […] Luminescence intensity was measured for each well using the Tecan M 1000 microplate reader after 5 min of incubation with CellTiter-Glo Reagent. The number of viable cells in culture was determined based on quantitation of the ATP present in each culture well. […] The EC50 curves were plotted and […] values were calculated using the GraphPad Prism 4 program based on a sigmoidal dose-response equation.

Huh7 = test: CellTiter-Glo cancer cell growth inhibition, Huh7; type: cell-based
Source text: as §1, §2, §3

HepG2 = test: CellTiter-Glo cancer cell growth inhibition, HepG2; type: cell-based, human
Source text: as §1, §2, §3

PIM2 = molecular target: T1, PIM2 (Homo sapiens, UniProt Q9P1W9); test: LANCE Ultra kinase assay, PIM2; type: biochemical
T1 construct: purchased ProQinase, Freiburg, Germany 0223-0000-1
Source text: (§4) The second assay used was Perkin Elmer's LANCE® Ultra kinase assay which uses a ULight™-labeled peptide substrate and an appropriate Europium-labeled anti-phospho antibody. When the substrate becomes phosphorylated by a kinase of interest, the phosphorylated site on the substrate is recognized by the Europium-labeled anti-phospho antibody. […] The intensity of light emission is proportional to the level of ULight peptide phosphorylation. A kinase inhibitor reduces the FRET signal, thus providing an accurate and sensitive measure of inhibition potency.
(§5) The assay was performed in 384-well plates in two steps: PIM kinases were mixed with the ULight-substrate (CREBtide) in buffer and incubated for 10 min. Subsequently, ATP and molecules of the present disclosure were added in a kinase buffer at the appropriate concentration and the reactions were incubated for 1 hour, at room temperature in the dark. • After 1 h EDTA was added to stop the kinase reaction, Eu-W1024-labeled anti-phosphoserine-CREB (Ser133) Antibody (anti-phosphoCREBtide specific antibody) was added to the reaction in LANCE Detection buffer. The mixture was allowed to incubate for 30 min to allow binding of the antibody to the phosphorylated site before the plate was read using a Tecan microplate reader
(§6) Kinase Assay Buffer—50 mM HEPES pH7.0.1 mM EGTA, 10 mM MgCl2, 0.01% BRU-35.
(§7) The inhibitory activity of each compound against PIM kinases was measured with the LANCE® Ultra Kinase Assays by ChemDiv, Inc. (San Diego, Calif.).

HepaRG = test: CellTiter-Glo cancer cell growth inhibition, HepaRG; type: cell-based; settings: Homo sapiens, 72 h
Source text: as §1, §2, §3

PIM3 = molecular target: T2, PIM3 (Homo sapiens, UniProt Q86V86); test: LANCE Ultra kinase assay, PIM3; type: biochemical; settings: for Selectivity among PIM1-3 (EC50 plots, FIGS. 2A, 2B): LANCE Ultra assay; for IC50: LANCE assay
T2 construct: purchased SignalChem, Richmond, Canada P37-10BG
Source text: as §4, §5, §6, §7

PIM1 = molecular target: T3, PIM1 (Homo sapiens, UniProt P11309); test: LANCE Ultra kinase assay, PIM1; type: biochemical
T3 construct: purchased ProQinase, Freiburg, Germany 0186-0000-1
Source text: as §4, §5, §6, §7

[1] = test system: Hepa1-6 mouse liver cancer cells; test: Hepa1-6 liver cancer xenograft mice; type: in vivo
Description: Hepa1-6 mouse liver cancer cells are suspended in Hank's balanced salt solution (HBSS)(2×10^7 cells/mL), and the suspension (100 μL) was subcutaneously injected into the back flank of six female CD57 immunocompetent mice. After growing for 21 days, the tumors were resected, cut into small pieces, and inserted under the skin on each back flank of twelve female CD57 mice (24 tumors total). Mice were maintained for 15 days following tumor insertion to establish robust and consistent tumor growth. The mice were randomly split into six groups of two mice each (two tumors per mouse). Alter establishment of the Hepa1-6 xenografts in CD57 mice, tumor dimensions were measured every 2 days using micrometer calipers. Four groups were treated with compound 49 (PO: 25 mg/kg and 50 mg/k; IP: 10 mg/kg and 25 mg/kg) by both oral (PO, gavage) and intraperitoneal (IP) administration once per day (q.d.) and two control groups were administered vehicle only through the same routes for 10 consecutive days. Mice are weighed daily, starting from the date of Hepa1-6 tumor insertion (day 0). At 25 days after subcutaneous inoculation with Hepa1-6 tumors, mice were euthanized via carbon dioxide asphyxiation and all tumors were excised immediately following death, weighed and measured, and then snap-frozen in liquid nitrogen. Tumor volume (TV) was calculated by the following formula: TV=0.5ab^2, where a is tumor length in mm, and b is tumor width in mm. […] Body weight of mice in all groups was maintained within 10% of day 0 baseline.

[2] = growth inhibition, 72 hours, CellTiter-Glo

T3 sequence (P11309 whole entry): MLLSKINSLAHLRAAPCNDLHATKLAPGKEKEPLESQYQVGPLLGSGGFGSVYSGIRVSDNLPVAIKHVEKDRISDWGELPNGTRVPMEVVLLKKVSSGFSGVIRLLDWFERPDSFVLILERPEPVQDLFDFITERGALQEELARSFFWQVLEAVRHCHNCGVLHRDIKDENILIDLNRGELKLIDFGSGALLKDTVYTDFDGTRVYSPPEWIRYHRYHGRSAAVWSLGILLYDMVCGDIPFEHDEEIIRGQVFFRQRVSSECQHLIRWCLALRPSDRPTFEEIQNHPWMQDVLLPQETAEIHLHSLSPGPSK
T1 sequence (Q9P1W9 whole entry): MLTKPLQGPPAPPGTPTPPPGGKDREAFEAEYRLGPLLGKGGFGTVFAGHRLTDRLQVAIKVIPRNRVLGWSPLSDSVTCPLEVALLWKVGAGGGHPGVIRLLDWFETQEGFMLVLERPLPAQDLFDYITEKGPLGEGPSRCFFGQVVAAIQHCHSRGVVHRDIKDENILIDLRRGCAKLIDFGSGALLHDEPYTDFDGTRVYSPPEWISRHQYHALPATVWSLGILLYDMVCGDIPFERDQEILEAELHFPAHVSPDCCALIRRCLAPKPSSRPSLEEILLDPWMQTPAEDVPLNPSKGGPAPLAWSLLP

EC50 (A673; Homo sapiens, A673, 72 h) [nM]	IC50 (PIM2; ATP 1 mM) [nM]	EC50 (HepaRG) [nM]	EC50 (Huh7; Homo sapiens, Huh-7, 72 h) [nM]	IC50 (PIM3; ATP 1 mM) [nM]	EC50 (HepG2; Homo sapiens, HepG2, 72 h) [nM]	IC50 (PIM1; ATP 1 mM) [nM]	SMILES	IC50 (PIM2; ATP 0.1 mM) [nM]	IC50 (PIM3; ATP 0.1 mM) [nM]	IC50 (PIM1; ATP 0.1 mM) [nM]	also measured
							N[C@@H]1CCCN(c2c(/C=C3\SC(=O)NC3=O)cccc2-c2ccccc2)C1 [AZD-1208, reference compound]				EC50 (A673; [2]): 19700 nM; EC50 (Huh7; [2]): 13500 nM; EC50 (HepG2; [2]): 28000 nM
37	480	250	240	4.9	570	2	O=C1NC(=O)c2c1c1c3ccc(O)cc3[nH]c1c1c2c2ccc(O)cc2n1CCN1CCOCC1 [Compound 32, 2,10-dihydroxy-12-(2-morpholinoethyl)-12,13-dihydro-5H-indolo[2,3-a]pyrrolo[3,4-c]carbazole-5,7(6H)-dione]	36	1.2	0.81	Selectivity among PIM1-3 (EC50 plots, FIGS. 2A, 2B) (PIM3): PIM1 and PIM3 selectivity
2.2	180	16	77	5	54	0.93	O=C1NC(=O)c2c1c1c3cc(F)c(O)cc3[nH]c1c1c2c2cc(F)c(O)cc2n1CCN1CCOCC1 [Compound 37, 3,9-difluoro-2,10-dihydroxy-12-(2-morpholinoethyl)-12,13-dihydro-5H-indolo[2,3-a]pyrrolo[3,4-c]carbazole-5,7(6H)-dione]	13	1.1	0.7	
4.4	674		100	1.6		0.42	O=C1NC(=O)c2c1c1c3ccncc3[nH]c1c1c2c2ccc(O)cc2n1CCN1CCOCC1 [Compound 41]				
5	18		100	1.9		0.16	O=C1NC(=O)c2c1c1c3ccc(O)cc3[nH]c1c1c2c2ccncc2n1CCN1CCOCC1 [Compound 42]				
							O=C1NC(=O)c2c1c1c3cc(F)ccc3[nH]c1c1c2c2cc(F)ccc2n1CCN1CCCCC1 [Compound 51, 3,9-difluoro-12-(2-piperidin-1-ylethyl)-12,13-dihydro-5H-indolo[2,3-a]pyrrolo[3,4-c]carbazole-5,7(6H)-dione]	> 1000	0.8	3	
							C[C@@H]1CCC[C@H](C)N1CCn1c2ccc(F)cc2c2c3c(c4c5cc(F)ccc5[nH]c4c21)C(=O)NC3=O [Compound 53, 12-{2-[(2R,6S)-2,6-dimethylpiperidin-1-yl]ethyl}-3,9-difluoro-12,13-dihydro-5H-indolo[2,3-a]pyrrolo[3,4-c]carbazole-5,7(6H)-dione]	> 1000	2.4	3	Selectivity among PIM1-3 (EC50 plots, FIGS. 2A, 2B) (PIM3): PIM1 and PIM3 selectivity
30000		2300	4400		4300		CNC(=O)c1cc(Oc2ccc(NC(=O)Nc3ccc(Cl)c(C(F)(F)F)c3)c(F)c2)ccn1 [Regorafenib, reference compound]				
18000		1400	2600		2300		CNC(=O)c1cc(Oc2ccc(NC(=O)Nc3ccc(Cl)c(C(F)(F)F)c3)cc2)ccn1 [Sorafenib, reference compound]				

SMILES	EC50 (A673; Homo sapiens, A673, 72 h) [nM]	IC50 (PIM2; ATP 1 mM) [nM]	EC50 (HepaRG) [nM]	EC50 (Huh7; Homo sapiens, Huh-7, 72 h) [nM]	IC50 (PIM3; ATP 1 mM) [nM]	EC50 (HepG2; Homo sapiens, HepG2, 72 h) [nM]	IC50 (PIM1; ATP 1 mM) [nM]	IC50 (PIM2; ATP 0.1 mM) [nM]	IC50 (PIM3; ATP 0.1 mM) [nM]	IC50 (PIM1; ATP 0.1 mM) [nM]	also measured
O=C1NC(=O)c2c1c1c3cc(F)ccc3[nH]c1c1c2c2cc(F)ccc2n1CCN1CCOCC1 [Compound 49, 3,9-difluoro-12-(2-morpholin-4-ylethyl)-12,13-dihydro-5H-indolo[2,3-a]pyrrolo[3,4-c]carbazole-5,7(6H)-dione]	57		> 10000	100		40		> 1000	0.7	4	Reduction of tumor size relative to control tumors ([1]; IP injection 25 mg/kg q.d., 10 days, CD57 mice): up to 50%; Tumor reduction ([1]; PO dosing (25 mg/kg and 50 mg/kg) q.d., CD57 mice): No tumor reduction was observed; Body weight change vs day 0 baseline ([1]; all groups (PO 25, 50 mg/kg; IP 10, 25 mg/kg)): ≤ 10%; Tumor reduction ([1]; lower doses (IP 10 mg/kg) q.d., CD57 mice): No tumor reduction was observed
O=C1NC(=O)c2c1c1c3ccc(O)cc3[nH]c1c1c2c2ccc(O)cc2n1CCN1CCCCC1 [Compound 56, 2,10-dihydroxy-12-(2-piperidinoethyl)-12,13-dihydro-5H-indolo[2,3-a]pyrrolo[3,4-c]carbazole-5,7(6H)-dione]	35		77	484		315		50	1	0.7	
C[C@@H]1CCC[C@H](C)N1CCn1c2cc(O)c(F)cc2c2c3c(c4c5cc(F)c(O)cc5[nH]c4c21)C(=O)NC3=O [Compound 59, 12-{2-[(2R,6S)-2,6-dimethylpiperidin-1-yl]ethyl}-3,9-difluoro-2,10-dihydroxy-12,13-dihydro-5H-indolo[2,3-a]pyrrolo[3,4-c]carbazole-5,7(6H)-dione]	3.1		20	925		266		37	3	0.1	

— patent publication US20220274997A1, “PIM KINASE INHIBITOR COMPOSITIONS AND USES THEREOF” (Snap Bio, Inc., priority 2019, published 2022)
